Test results taken from patent US12466840B2, “Small molecule inhibitors of KRAS proteins” (Merck Sharp & Dohme LLC, priority 2023, dated 2025).
pIC50: −log10 of the molar value.

Key:
Assay type in all cases: biochemical
Settings in all cases: TR-FRET, 60 min preincubation
[1] = target: KRAS G12V (Homo sapiens (Human), UniProt P01116, G12V); assay: SOS-catalyzed nucleotide exchange assay (GNE), KRAS G12V
Excerpt: (§1) Procedure for SOS-Catalyzed Nucleotide Exchange Assay for KRAS-WT, G12C/D/V/A/R/S, G13D, Q61H, HRAS-WT, and NRAS-WT
(§2) Recombinant KRAS-G12C protein used in this assay has an additional triple mutation (C51S/C80L/C118S). Whereas KRAS-WT, G12D/V/A/S/R, G13D, Q61H, HRAS and NRAS are in context of their WT protein sequence background. Specifically, the SOS-catalyzed nucleotide exchange assay utilizes a preformed TR-FRET complex containing a specific biotinylated RAS protein (KRAS-WT, G12C/V/D/A/S/R, G13D, Q61H, HRAS-WT, NRAS-WT; described above) with Bodipy-GDP, and Terbium-streptavidin. Compounds are preincubated with this complex for 60 minutes. Subsequently, recombinant human SOS protein and unlabeled GTP are added to initiate the exchange reaction. Small molecule inhibitors stabilize the Bodipy-GDP complex whereas the untreated protein rapidly exchanges Bodipy-GDP for unlabeled GTP resulting in reduced TR-FRET signal.
(§3) To assemble the preformed TR-FRET complexes, each biotinylated RAS protein is diluted to 2 μM in an EDTA Buffer (20 mM HEPES pH 7.5, 50 mM sodium chloride, 10 mM EDTA, and 0.01% Tween) and incubated at room temperature for one hour. This mixture is then further diluted to 90 nM in an Assay Buffer (20 mM HEPES pH 7.5, 150 mM sodium chloride, 10 mM magnesium chloride, and 0.005% Tween) containing 15 nM of Terbium-Streptavidin (Invitrogen, catalog #PV3577) and 900 nM of Bodipy-GDP (Invitrogen, catalog #G22360) and incubated at room temperature for six hours. It should be noted that this preformed TR-FRET complex for each of the RAS protein were made ahead of time, aliquoted and stored at −80° C. until the day of the experiment.
(§4) Each test compound (10 mM stock in DMSO) is diluted in DMSO to make a final-10-point, 3-fold dilution and is acoustically dispensed into a 384-well assay plate (Corning, catalog #3820) using an Echo 550 (Labcyte). Each well of the assay plate receives 3 μL of a specific 3×RAS preformed TR-FRET complex and 3 μL of Assay Buffer and is incubated at room temperature for 60 minutes (preincubation time). Each well then receives 3 μL of 3× recombinant human SOS protein and GTP (Sigma, G8877) in Assay Buffer and is incubated at room temperature for 30 minutes (G13D), 60 minutes (KRAS WT/G12C/D, H/NRAS) or 90 minutes for G12A/R/S/V and Q61H. The final reaction in each well of 9 μL consists of 3 mM GTP, specific Ras and SOS proteins in the following concentrations: KRAS-G12C/SOS=3 nM/40 nM, KRAS-WT and G12D/SOS=1 nM/40 nM, KRAS-G12V/SOS=1.25 nM/160 nM, KRAS-G12A/S/SOS=1 nM/160 nM, KRAS-G12R/SOS=1 nM/320 nM, KRAS-Q61H/SOS=1 nM/320 nM, KRAS-G13D/SOS=1.25 nM/[…], HRAS-WT and NRAS-WT=1.25 nM/40 nM.
(§5) The time-resolved fluorescence resonance energy transfer (TR-FRET) signal is measured on an Envision (PerkinElmer) plate reader: Excitation filter=340 nm; emission1=495 nm; emission2=520 nm; dichroic mirror=D400/D505; delay time=[…]. The signal of each well is determined as the ratio of the emission at 520 nm to that at 495 nm. Percent effect of each well is determined after normalization to control wells containing DMSO (no effect) or a saturating concentration of inhibitor (max effect). The apparent effect as a function of compound concentration is fit to a four-parameter logistic equation.

[2] = target: KRAS WT (Homo sapiens (Human), UniProt P01116); assay: SOS-catalyzed nucleotide exchange assay (GNE), KRAS WT
Excerpt: as §1, §2, §3, §4, §5

[3] = target: HRAS (Homo sapiens (Human), UniProt P01112); assay: SOS-catalyzed nucleotide exchange assay (GNE), HRAS-WT
Excerpt: as §1, §2, §3, §4, §5

[4] = target: KRAS G12A (Homo sapiens (Human), UniProt P01116, G12A); assay: SOS-catalyzed nucleotide exchange assay (GNE), KRAS G12A
Excerpt: as §1, §2, §3, §4, §5

[5] = target: KRAS G12S (Homo sapiens (Human), UniProt P01116, G12S); assay: SOS-catalyzed nucleotide exchange assay (GNE), KRAS G12S
Excerpt: as §1, §2, §3, §4, §5

[6] = target: KRAS G12R (Homo sapiens (Human), UniProt P01116, G12R); assay: SOS-catalyzed nucleotide exchange assay (GNE), KRAS G12R
Excerpt: as §1, §2, §3, §4, §5

[7] = target: KRAS Q61H (Homo sapiens (Human), UniProt P01116, Q61H); assay: SOS-catalyzed nucleotide exchange assay (GNE), KRAS Q61H
Excerpt: as §1, §2, §3, §4, §5

Chain of HRAS (P01112 other isoform, or with tags, fused parts or gaps): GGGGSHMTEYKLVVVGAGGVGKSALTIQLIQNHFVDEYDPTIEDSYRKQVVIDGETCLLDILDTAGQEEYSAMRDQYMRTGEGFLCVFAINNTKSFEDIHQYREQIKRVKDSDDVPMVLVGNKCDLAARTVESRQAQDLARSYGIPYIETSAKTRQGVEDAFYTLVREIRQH
Chain of KRAS G12R (P01116 other isoform, or with tags, fused parts or gaps G12R (already in the parent)): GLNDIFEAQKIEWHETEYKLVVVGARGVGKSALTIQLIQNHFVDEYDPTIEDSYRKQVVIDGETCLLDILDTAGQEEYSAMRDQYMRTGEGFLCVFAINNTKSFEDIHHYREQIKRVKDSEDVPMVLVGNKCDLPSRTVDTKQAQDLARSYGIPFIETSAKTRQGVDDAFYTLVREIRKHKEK
Chain of KRAS Q61H (P01116 other isoform, or with tags, fused parts or gaps Q61H (already in the parent)): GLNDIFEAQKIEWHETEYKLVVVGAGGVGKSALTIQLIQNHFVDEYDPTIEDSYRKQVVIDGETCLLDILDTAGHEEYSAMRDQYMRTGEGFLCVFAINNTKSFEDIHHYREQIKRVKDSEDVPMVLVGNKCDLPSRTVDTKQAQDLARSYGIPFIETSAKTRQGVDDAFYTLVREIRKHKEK
Chain of KRAS G12A (P01116 other isoform, or with tags, fused parts or gaps G12A (already in the parent)): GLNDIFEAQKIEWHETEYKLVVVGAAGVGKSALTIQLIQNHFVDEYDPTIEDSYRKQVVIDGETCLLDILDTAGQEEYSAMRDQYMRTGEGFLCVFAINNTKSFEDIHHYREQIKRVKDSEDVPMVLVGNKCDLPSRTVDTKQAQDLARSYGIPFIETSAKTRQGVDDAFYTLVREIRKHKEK
Chain of KRAS G12V (P01116 other isoform, or with tags, fused parts or gaps G12V (already in the parent)): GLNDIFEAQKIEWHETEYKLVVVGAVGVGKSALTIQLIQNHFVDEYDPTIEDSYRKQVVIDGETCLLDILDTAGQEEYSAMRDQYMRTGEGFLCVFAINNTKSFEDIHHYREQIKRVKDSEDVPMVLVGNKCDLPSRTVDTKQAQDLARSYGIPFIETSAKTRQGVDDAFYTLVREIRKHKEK
Chain of KRAS G12S (P01116 other isoform, or with tags, fused parts or gaps G12S (already in the parent)): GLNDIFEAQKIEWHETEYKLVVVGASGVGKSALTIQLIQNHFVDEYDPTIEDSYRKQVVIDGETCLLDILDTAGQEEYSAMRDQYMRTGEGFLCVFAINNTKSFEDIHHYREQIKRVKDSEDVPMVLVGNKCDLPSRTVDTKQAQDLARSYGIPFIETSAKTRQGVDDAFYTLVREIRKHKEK
Chain of KRAS WT (P01116 other isoform, or with tags, fused parts or gaps): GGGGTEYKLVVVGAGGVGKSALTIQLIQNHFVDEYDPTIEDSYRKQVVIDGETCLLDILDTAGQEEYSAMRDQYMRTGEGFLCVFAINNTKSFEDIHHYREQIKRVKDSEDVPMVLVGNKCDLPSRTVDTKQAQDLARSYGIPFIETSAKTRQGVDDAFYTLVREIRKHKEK

Structure (SMILES) | pIC50 [1] | pIC50 [2] | pIC50 [3] | pIC50 [4] | pIC50 [5] | pIC50 [6] | pIC50 [7]
Fc1c(-c2c(C3CC3)c(Cl)cc3[nH]ncc23)nc2c3c(nc(OC[C@@]45CCCN4C[C@H](F)C5)nc13)N1CCCOC[C@H]1CO2 [Ex-3, (8aS)-5-(6-chloro-5-cyclopropyl-1H-indazol-4-yl)-4-fluoro-2-(((2R,7aS)-2-fluorotetrahydro-1H-pyrrolizin-7a(5H)-yl)methoxy)-8a,9,12,13-tetrahydro-8H,11H-7,10-dioxa-1,3,6,13a-tetraazanaphtho[1,8-ab]heptalene] | 8.52 | 8.60 |  |  |  |  | 
CCc1c(F)ccc2cc3[nH]nc(C)c3c(-c3nc4c5c(nc(OC[C@@]67CCCN6C/C(=C\F)C7)nc5c3F)N3CCCOC[C@H]3CO4)c12 [Ex-7, (8aS)-5-(5-ethyl-6-fluoro-3-methyl-1H-benzo[f]indazol-4-yl)-4-fluoro-2-(((S,Z)-2-(fluoromethylene)tetrahydro-1H-pyrrolizin-7a(5H)-yl)methoxy)-8a,9,12,13-tetrahydro-8H,11H-7,10-dioxa-1,3,6,13a-tetraazanaphtho[1,8-ab]heptalene] | 8.55 | 8.85 | 5.66 | 8.89 | 8.89 | 8.89 | 8.55
F/C=C1/CN2CCC[C@@]2(COc2nc3c4c(nc(-c5c(C6CC6)c(Cl)cc6[nH]ncc56)c(F)c4n2)OC[C@@H]2COCCCN32)C1 [Ex-1, (8aS)-5-(6-chloro-5-cyclopropyl-1H-indazol-4-yl)-4-fluoro-2-(((S,Z)-2-(fluoromethylene)tetrahydro-1H-pyrrolizin-7a(5H)-yl)methoxy)-8a,9,12,13-tetrahydro-8H,11H-7,10-dioxa-1,3,6,13a-tetraazanaphtho[1,8-ab]heptalene] | 8.89 | 9.06 | < 4.96 | > 9.16 | > 9.16 | > 9.16 | 8.85
CCc1c(F)ccc2cc3[nH]ncc3c(-c3nc4c5c(nc(OC[C@@]67CCCN6C[C@H](F)C7)nc5c3F)N3CCCOC[C@H]3CO4)c12 [Ex-2, (8aS)-5-(5-ethyl-6-fluoro-1H-benzo[f]indazol-4-yl)-4-fluoro-2-(((2R,7aS)-2-fluorotetrahydro-1H-pyrrolizin-7a(5H)-yl)methoxy)-8a,9,12,13-tetrahydro-8H,11H-7,10-dioxa-1,3,6,13a-tetraazanaphtho[1,8-ab]heptalene] | 8.89 | 8.96 | 5.56 | > 9.16 | > 9.16 | > 9.16 | 8.92

Second part, led by results:

pIC50 [1] | pIC50 [2] | Structure (SMILES) | pIC50 [3] | pIC50 [4] | pIC50 [5] | pIC50 [6] | pIC50 [7]
8.82 | 8.80 | CCc1c(F)ccc2cc3[nH]nc(C)c3c(-c3nc4c5c(nc(OC[C@@]67CCCN6C[C@H](F)C7)nc5c3F)N3CCCOC[C@H]3CO4)c12 [Ex-6, (8aS)-5-(5-ethyl-6-fluoro-3-methyl-1H-benzo[f]indazol-4-yl)-4-fluoro-2-(((2R,7aS)-2-fluorotetrahydro-1H-pyrrolizin-7a(5H)-yl)methoxy)-8a,9,12,13-tetrahydro-8H,11H-7,10-dioxa-1,3,6,13a-tetraazanaphtho[1,8-ab]heptalene] | 5.26 | 9.00 | 8.92 | 8.92 | 8.74
9.01 | > 9.16 | F/C=C1\CN2CCC[C@@]2(COc2nc3c4c(nc(-c5c(C6(F)CC6)c(Cl)cc6[nH]ncc56)c(F)c4n2)OC[C@@H]2COCCCN32)C1 [Ex-5, (8aS)-5-(6-chloro-5-(1-fluorocyclopropyl)-1H-indazol-4-yl)-4-fluoro-2-(((S,Z)-2-(fluoromethylene)tetrahydro-1H-pyrrolizin-7a(5H)-yl)methoxy)-8a,9,12,13-tetrahydro-8H,11H-7,10-dioxa-1,3,6,13a-tetraazanaphtho[1,8-ab]heptalene] | 5.33 | 9.08 | 9.11 | 8.89 | 9.01
9.08 | > 9.16 | CCc1c(F)ccc2cc3[nH]ncc3c(-c3nc4c5c(nc(OC[C@@]67CCCN6C/C(=C\F)C7)nc5c3F)N3CCCOC[C@H]3CO4)c12 [Ex-4, (8aS)-5-(5-ethyl-6-fluoro-1H-benzo[f]indazol-4-yl)-4-fluoro-2-(((S,Z)-2-(fluoromethylene)tetrahydro-1H-pyrrolizin-7a(5H)-yl)methoxy)-8a,9,12,13-tetrahydro-8H,11H-7,10-dioxa-1,3,6,13a-tetraazanaphtho[1,8-ab]heptalene] | 5.89 | > 9.16 | > 9.16 | > 9.16 | 9.00
